Measured values as given in patent US10189839B2, “Tricyclic imidazole compounds as inhibitors of tryptophan hydroxylase” (ACTELION PHARMACEUTICALS LTD, priority 2013, dated 2019).

Molecular target: T1, full length human TPH1 (Homo sapiens, UniProt P17752)
T1 construct: To generate the enzyme, full length human TPH1 is cloned into the plasmid pET20b(+); made in house; host or cells: E. coli
T1 sequence (P17752 1-444): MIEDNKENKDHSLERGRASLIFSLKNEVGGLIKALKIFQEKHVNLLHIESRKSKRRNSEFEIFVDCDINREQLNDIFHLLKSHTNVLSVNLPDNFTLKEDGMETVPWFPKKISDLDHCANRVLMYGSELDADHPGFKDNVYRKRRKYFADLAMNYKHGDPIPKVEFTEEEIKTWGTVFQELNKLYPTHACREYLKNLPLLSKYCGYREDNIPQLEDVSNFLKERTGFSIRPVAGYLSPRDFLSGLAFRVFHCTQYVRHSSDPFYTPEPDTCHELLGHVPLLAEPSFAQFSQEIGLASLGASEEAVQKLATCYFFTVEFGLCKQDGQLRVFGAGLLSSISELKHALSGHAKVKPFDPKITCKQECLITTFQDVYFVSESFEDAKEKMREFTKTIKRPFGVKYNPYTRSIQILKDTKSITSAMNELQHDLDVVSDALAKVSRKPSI
Test: Biochemical in vitro assay using fluorescence readout (TPH1 enzyme activity)
Details: Table 1, mean where determined several times
Outline: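 IC50 (mean of repeats) derived from 5-hydroxy-L-tryptophan fluorescence at 540 nm (300 nm excitation) relative to vehicle, after perchloric acid stop. Reaction: 60 min, 15° C., pH 7.6 Tris-HCl, 40 μM L-tryptophan, 100 μM 6-methyltetrahydropterine, DTT, catalase, with 40-80 nM purified full-length human TPH1 from E. coli.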

| SMILES | IC50 |
| --- | --- |
| CS(=O)(=O)Nc1ccc(OCC(=O)N2CCc3nc4n(c3C2c2ccc(Cl)cc2F)CCS4)c(Cl)n1 (stereo not shown) [Example 4.1.1, N-(6-chloro-5-(2-(5-(4-chloro-2-fluorophenyl)-2,3,7,8-tetrahydrothiazolo[2′,3′:2,3]imidazo[4,5-c]pyridin-6(5H)-yl)-2-oxoethoxy)pyridin-2-yl)methanesulfonamide] | 19 nM |
| O=C(COc1ccc(N2CCCS2(=O)=O)nc1Cl)N1CCc2nc3n(c2C1c1ccc(Cl)cc1F)CCS3 (stereo not shown) [Example 4.1.2, 1-(5-(4-chloro-2-fluorophenyl)-2,3,7,8-tetrahydrothiazolo[2′,3′:2,3]imidazo[4,5-c]pyridin-6(5H)-yl)-2-((2-chloro-6-(1,1-dioxidoisothiazolidin-2-yl)pyridin-3-yl)oxy)ethanone] | 7 nM |
| CCc1nc(NS(C)(=O)=O)ccc1OCC(=O)N1CCc2nc3n(c2C1c1ccc(Cl)cc1F)CCS3 (stereo not shown) [Example 4.1.3, N-(5-(2-(5-(4-chloro-2-fluorophenyl)-2,3,7,8-tetrahydrothiazolo[2′,3′:2,3]imidazo[4,5-c]pyridin-6(5H)-yl)-2-oxoethoxy)-6-ethylpyridin-2-yl)methanesulfonamide] | 16 nM |
| CN(c1ccc(OCC(=O)N2CCc3nc4n(c3C2c2ccc(Cl)cc2F)CCS4)c(Cl)n1)S(C)(=O)=O (stereo not shown) [Example 4.1.4, N-(6-chloro-5-(2-(5-(4-chloro-2-fluorophenyl)-2,3,7,8-tetrahydrothiazolo[2′,3′:2,3]imidazo[4,5-c]pyridin-6(5H)-yl)-2-oxoethoxy)pyridin-2-yl)-N-methylmethanesulfonamide] | 16 nM |
| CN1CCN(c2ccc(OCC(=O)N3CCc4nc5n(c4C3c3ccc(Cl)cc3F)CCS5)c(Cl)n2)S1(=O)=O (stereo not shown) [Example 4.1.5, 1-(5-(4-chloro-2-fluorophenyl)-2,3,7,8-tetrahydrothiazolo[2′,3′:2,3]imidazo[4,5-c]pyridin-6(5H)-yl)-2-((2-chloro-6-(5-methyl-1,1-dioxido-1,2,5-thiadiazolidin-2-yl)pyridin-3-yl)oxy)ethanone] | 12 nM |
| CCc1nc(N2CCCS2(=O)=O)ccc1OCC(=O)N1CCc2nc3n(c2C1c1ccc(Cl)cc1F)CCS3 (stereo not shown) [Example 4.1.6, 1-(5-(4-chloro-2-fluorophenyl)-2,3,7,8-tetrahydrothiazolo[2′,3′:2,3]imidazo[4,5-c]pyridin-6(5H)-yl)-2-((6-(1,1-dioxidoisothiazolidin-2-yl)-2-ethylpyridin-3-yl)oxy)ethanone] | 12 nM |
| CCc1nc(NS(=O)(=O)N(C)C)ccc1OCC(=O)N1CCc2nc3n(c2C1c1ccc(Cl)cc1F)CCS3 (stereo not shown) [Example 4.1.7, N-(5-(2-(5-(4-chloro-2-fluorophenyl)-2,3,7,8-tetrahydrothiazolo[2′,3′:2,3]imidazo[4,5-c]pyridin-6(5H)-yl)-2-oxoethoxy)-6-ethylpyridin-2-yl)-N′,N′-dimethyl-sulfamide] | 76 nM |
| CCc1nc(C)ccc1OCC(=O)N1CCc2nc3n(c2C1c1ccc(Cl)cc1F)CCS3 (stereo not shown) [Example 4.1.8, 1-(5-(4-chloro-2-fluorophenyl)-2,3,7,8-tetrahydrothiazolo[2′,3′:2,3]imidazo[4,5-c]pyridin-6(5H)-yl)-2-((2-ethyl-6-methylpyridin-3-yl)oxy)ethanone] | 28 nM |
| CCc1nc(C(=O)NC2CC2)ccc1OCC(=O)N1CCc2nc3n(c2C1c1ccc(Cl)cc1F)CCS3 (stereo not shown) [Example 4.1.9, 5-(2-(5-(4-chloro-2-fluorophenyl)-2,3,7,8-tetrahydrothiazolo[2′,3′:2,3]imidazo[4,5-c]pyridin-6(5H)-yl)-2-oxoethoxy)-N-cyclopropyl-6-ethylpicolinamide] | 31 nM |
| CCc1nc(NS(C)(=O)=O)ncc1OCC(=O)N1CCc2nc3n(c2C1c1ccc(Cl)cc1F)CCS3 (stereo not shown) [Example 4.1.10, N-(5-(2-(5-(4-chloro-2-fluorophenyl)-2,3,7,8-tetrahydrothiazolo[2′,3′:2,3]imidazo[4,5-c]pyridin-6(5H)-yl)-2-oxoethoxy)-4-ethylpyrimidin-2-yl)methanesulfonamide] | 67 nM |
| CCc1nc(Cl)ncc1OCC(=O)N1CCc2nc3n(c2C1c1ccc(Cl)cc1F)CCS3 (stereo not shown) [Example 4.1.11, 1-(5-(4-chloro-2-fluorophenyl)-2,3,7,8-tetrahydrothiazolo[2′,3′:2,3]imidazo[4,5-c]pyridin-6(5H)-yl)-2-((2-chloro-4-ethylpyrimidin-5-yl)oxy)ethanone] | 185 nM |
| O=C(NC1CC1)c1ccc(OCC(=O)N2CCc3nc4n(c3C2c2ccc(Cl)cc2F)CCS4)c(Cl)n1 (stereo not shown) [Example 4.1.12, 6-chloro-5-(2-(5-(4-chloro-2-fluorophenyl)-2,3,7,8-tetrahydrothiazolo[2′,3′:2,3]imidazo[4,5-c]pyridin-6(5H)-yl)-2-oxoethoxy)-N-cyclopropylpicolinamide] | 9 nM |
| O=C(COc1ccc(C2CC2)nc1Cl)N1CCc2nc3n(c2C1c1ccc(Cl)cc1F)CCS3 (stereo not shown) [Example 4.1.13, 1-(5-(4-chloro-2-fluorophenyl)-2,3,7,8-tetrahydrothiazolo[2′,3′:2,3]imidazo[4,5-c]pyridin-6(5H)-yl)-2-((2-chloro-6-cyclopropylpyridin-3-yl)oxy)ethanone] | 11 nM |
| CCc1nc(C2CC2)ccc1OCC(=O)N1CCc2nc3n(c2C1c1ccc(Cl)cc1F)CCS3 (stereo not shown) [Example 4.1.14, 1-(5-(4-chloro-2-fluorophenyl)-2,3,7,8-tetrahydrothiazolo[2′,3′:2,3]imidazo[4,5-c]pyridin-6(5H)-yl)-2-((6-cyclopropyl-2-ethylpyridin-3-yl)oxy)ethanone] | 16 nM |
| CCc1nc(NS(C)(=O)=O)ccc1OCC(=O)N1CCc2nc3n(c2[C@@H]1c1ccc(Cl)cc1F)CCS3 [Example 4.1.15, (S)-N-(5-(2-(5-(4-chloro-2-fluorophenyl)-2,3,7,8-tetrahydrothiazolo[2′,3′:2,3]imidazo[4,5-c]pyridin-6(5H)-yl)-2-oxoethoxy)-6-ethylpyridin-2-yl)methanesulfonamide] | 6 nM |
| O=C(COc1ccc(N2CCCS2(=O)=O)nc1Cl)N1CCc2nc3n(c2[C@@H]1c1ccc(Cl)cc1F)CCS3 [Example 4.1.16, (S)-1-(5-(4-chloro-2-fluorophenyl)-2,3,7,8-tetrahydrothiazolo[2′,3′:2,3]imidazo[4,5-c]pyridin-6(5H)-yl)-2-((2-chloro-6-(1,1-dioxidoisothiazolidin-2-yl)pyridin-3-yl)oxy)ethanone] | 6 nM |
| CCc1nc(C(=O)NC2CC2)ccc1OCC(=O)N1CCc2nc3n(c2C1c1ncc(C2CC2)cc1F)CCS3 (stereo not shown) [Example 4.2.1, N-cyclopropyl-5-(2-(5-(5-cyclopropyl-3-fluoropyridin-2-yl)-2,3,7,8-tetrahydrothiazolo[2′,3′:2,3]imidazo[4,5-c]pyridin-6(5H)-yl)-2-oxoethoxy)-6-ethylpicolinamide] | 8 nM |
| CCc1nc(NS(C)(=O)=O)ccc1OCC(=O)N1CCc2nc3n(c2C1c1ncc(C2CC2)cc1F)CCS3 (stereo not shown) [Example 4.2.2, N-(5-(2-(5-(5-cyclopropyl-3-fluoropyridin-2-yl)-2,3,7,8-tetrahydrothiazolo[2′,3′:2,3]imidazo[4,5-c]pyridin-6(5H)-yl)-2-oxoethoxy)-6-ethylpyridin-2-yl)methanesulfonamide] | 8 nM |
| CCc1nc(C(=O)NC2CC2)ccc1OCC(=O)N1CCc2nc3n(c2[C@@H]1c1ncc(C2CC2)cc1F)CCS3 [Example 4.2.3, (R)-N-cyclopropyl-5-(2-(5-(5-cyclopropyl-3-fluoropyridin-2-yl)-2,3,7,8-tetrahydrothiazolo[2′,3′:2,3]imidazo[4,5-c]pyridin-6(5H)-yl)-2-oxoethoxy)-6-ethylpicolinamide] | 16 nM |
